Data as given in patent US6458812B1, “Muscarinic antagonists” (Schering Corporation, priority 2000, dated 2002).
Counter-ions that a name gives are not always drawn.

Key:
[1] = Microsomal stability, rat; format: in vitro ADME; conditions: rat liver microsomes, 37° C.
Description: (§1) A solution of a compound of formula I at a final substrate concentration of […] and human, cynomolgus monkey or rat liver microsomes at final P450 concentrations of 0.18, 0.175 and 0.25 nmol/ml, respectively, is incubated in 0.1 M potassium phosphate buffer at pH 7.4 in 96-well micro-titre plates at 37° C. for 3 min in a shaking water bath. A cofactor solution containing MgCl2, Glucose-6-phosphate, NADPH, and Glucose-6-phosphate dehydrogenase is added to each sample (half the total incubation volume/sample) and the total incubation mixture is incubated for 0 and 30 min. (An n=3 samples is incubated for each compound). After each time point, an equal volume of CH3CN is added. The samples are mixed by vortexing and the plates are centrifuged at 3000 rpm for 20 min. The supernatant is analyzed by Liquid Chromatography Mass Spectrometry (LCMS) for parent drug and/or metabolites using an appropriate analytical method.

[2] = Microsomal stability, monkey; format: in vitro ADME, cynomolgus monkey; conditions: monkey liver microsomes, 37° C.
Description: as §1

[3] = Microsomal stability, human; format: in vitro ADME; conditions: human liver microsomes, 37° C.
Description: as §1

melting point [°C] | % remaining after 30 min. [1] [%] | % remaining after 30 min. [2] [%] | % remaining after 30 min. [3] [%] | Compound
234 to 235 |  |  |  | C[C@H](NC(=O)c1ccc(CC2CCN(C3CCCCC3)CC2)cc1)c1ccc(F)cc1 (as salt: HCl) [Example 2]
 | 79 | 80 | 80 | C[C@H](NC(=O)c1ccc(CC2CCN(C3CCCCC3)CC2)cc1)c1ccc(F)cc1 [Example 2]
